In one test the test system is BxPC-3-GFP tumor cells. The test can be described thus: Surgical orthotopic implantation of BxPC-3-GFP pancreatic tumor cells in nude mice. The settings on record: female NCr nu/nu mice; AB0023 30 mg/kg IP twice per week 6 weeks; Gemzar 200 mg/kg IP once per week 3 weeks. It counts as in vivo, mouse. As for the experimental part:
Tumor formation and metastasis are monitored by fluorescence imaging.
Approximately 75 female nude mice (NCr nu/nu), 5-6 weeks old, are anesthetized by intraperitoneal injection of a solution of 100 mg/kg ketamine and 5 mg/kg xylazine. Under anesthesia, BxPC-3-GFP tumor cells are surgically implanted, by suturing into the pancreas. […] Each group contains 15 animals, and all administrations are intraperitoneal.
Body weight is determined once per week.
At the conclusion of the study, blood is collected by cardiac puncture and one ml is used for preparation of serum.
The other half is snap frozen for RNA isolation.

In test [1] the test system is MDA-MB-231-luc-D3H2LN cells. As to the kind of experiment: Breast tumor metastasis model, intracardiac injection, bioluminescent imaging. The conditions noted are these: AB0023 30 mg/kg IP twice per week; taxol 5 mg/kg daily. It counts as in vivo, mouse. Here is the method: In this model system, MDA-MB-231-luc-D3H2LN cells (Caliper Life Sciences, Hopkinton, Mass.), a derivative of a human breast cancer cell line that has been stably transfected with a luciferase gene were introduced into female nude mice by intracardiac injection. The cells are disseminated through the circulation, and the occurrence and location of metastases are determined by in vivo bioluminescent imaging (BLI).
Approximately 80 female nude mice (NCr nu/nu), 8-10 weeks old, were anesthetized by intraperitoneal injection of a solution of 100 mg/kg ketamine and 5 mg/kg xylazine. […] Bioluminescence from whole body and lung projection was measured and expressed as photons per second. If the ratio of whole body luminescence to lung luminescence was less than 3, the mouse was excluded from the study. […]
Ventral and dorsal views of the animals were obtained by in vivo bioluminescent imaging (BLI) on days 0, 7, 10, 13, 16, 21, 24 AND 28; using the IVIS®-Spectrum imaging system (Caliper Life Sciences, Hopkinton, Mass.). Data were analyzed using Living Image 3.0 Software (Caliper Life Sciences, Hopkinton, Mass.).
Body weight was measured once per week for the first two weeks of the study, then three times per week until the conclusion of the study. […]

Experimental findings from patent publication US20110044907A1, “IN VIVO SCREENING ASSAYS” (priority 2009, published 2011) are described below.

Where a name gives a salt, the structure may show the parent alone.

`Nc1ccn([C@@H]2O[C@H](CO)[C@@H](O)C2(F)F)c(=O)n1` [Gemzar, gemcitabine-HCl]: the mean tumor volume result in the test with BxPC-3-GFP tumor cells is listed as “reduced”. `CC(=O)O[C@H]1C(=O)[C@@]2(C)[C@H]([C@H](OC(=O)c3ccccc3)[C@]3(O)C[C@H](OC(=O)[C@H](O)[C@@H](NC(=O)c4ccccc4)c4ccccc4)C(C)=C1C3(C)C)[C@]1(OC(C)=O)CO[C@@H]1C[C@@H]2O` [taxol]: the “survival advantage compared to vehicle-treated animals” value in test [1] is “not observed”.
